Series [1] has as its system U87MG cells. Nature of the series: Proliferation assay (MTT-based) on U87MG tumour cells. As to conditions: Homo sapiens, U-87 MG, 96 h, 4 days of incubation, negative log value of the IC50-value, read-out: cell proliferation pIC50 (converted). In short, it runs like this:
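Human glioblastoma U87MG cells (wild-type p53) exposed to compound for 4 days at ≤0.1% DMSO, then MTT added for 2 h at 37 °C and absorbance read at 540 nm. Growth expressed as % of untreated control; IC50 by probit analysis, reported as pIC50.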

Structures can show the parent of a compound that is named as a salt.

What is called melting point is the temperature of the solid-liquid transition.

`c1cncc(CNc2ccc(NCCc3c[nH]c4ccccc34)cc2)c1` (as salt: hydrochloric acid salt) [Compound 121]: the melting point came out at 130 °C.

With `CCOc1cc(Nc2ccnc3c2CCC3O)ccc1NCCc1c[nH]c2cc(OC)ccc12` (stereo not shown) [Compound 112], the melting point is 194 °C. Also, in series [1], the IC50 was 0.0316 µM.

Turning to `COc1ccc2c(CNc3ccc(Nc4ccncc4)cc3)c[nH]c2c1` [Compound 7], the melting point is 145 °C. The IC50 in series [1] is 2 µM.

For the compound `N#Cc1ccc2[nH]cc(C(O)C(=O)Nc3ccc(Nc4ccncc4)cc3)c2c1` (stereo not shown) [Compound 113], the melting point turned out to be 154 °C. Further, in series [1], the IC50 is more than 10 µM.

`OC1CCCc2c(Nc3ccc(NCCc4c[nH]c5ccccc45)cc3)ccnc21` (stereo not shown) [Compound 111]: the melting point amounted to 104 °C. For the same compound, in series [1], the IC50 was 0.0794 µM.

`Cn1cc(CCN(c2ccncc2)c2ccc(Nc3ccncc3)cc2)c2ccccc21` (as salt: hydrochloric acid salt) [Compound 10] yielded a melting point of more than 250 °C.

`c1ccc2c(CCNc3ccc(Nc4ccnc(-c5nnn[nH]5)c4)cc3)c[nH]c2c1` [Compound 87]: the melting point worked out at 210 °C. Also, the IC50 in series [1] is more than 10 µM.

As to `c1ccc(-c2noc(-c3cc(Nc4ccc(NCCc5c[nH]c6ccccc56)cc4)ccn3)n2)cc1` [Compound 107], the melting point lay within 170 to 174 °C.

As for `O=c1cc(Nc2ccc(NCCc3c[nH]c4ccccc34)cc2)c2ccccc2[nH]1` [Compound 3], the melting point is 238 °C. In series [1], the IC50 was 5.01 µM.

Regarding `c1ccc2c(CCNc3ccc(NCc4ccncc4)cc3)c[nH]c2c1` (as salt: salt) [Compound 9], the melting point stood at 132 °C.

The compound `c1cncc(Nc2ccc(NCCc3c[nH]c4ccccc34)cc2)c1` (as salt: HCl) [Compound 6] gave a melting point of 160 °C.

In the case of `CCOc1cc(Nc2ccncc2)ccc1NCCc1c[nH]c2ccccc12` (as salt: hydrochloric acid salt) [Compound 2], the melting point was found to be 150 °C.

With `c1ccc2c(CCNc3ccc(Nc4ncnc5[nH]ccc45)cc3)c[nH]c2c1` [Compound 117], the melting point amounted to 211 °C. Also, in series [1], the IC50 is more than 10 µM.

`O=C(CCc1c[nH]c2ccccc12)Nc1ccc(Nc2ccncc2)cc1` [Compound 8] returned a melting point of 208 °C. In series [1], the IC50 was 5.01 µM.

`c1ccc(Cc2noc(-c3cc(Nc4ccc(NCCc5c[nH]c6ccccc56)cc4)ccn3)n2)cc1` [Compound 108] registered a melting point of 159 to 161 °C.

The compound `c1ccc2c(Nc3ccc(NCCc4c[nH]c5ccccc45)cc3)ccnc2c1` (as salt: HCl) [Compound 1] gave a melting point of 170 °C.

As to `CC(C)(C)OC(=O)N(CCc1cn(C(=O)OC(C)(C)C)c2ccccc12)c1ccc(Nc2ccnc(Cl)c2)cc1` [Compound 102], the IC50 in series [1] is more than 10 µM.

As for `CCNCc1cc(Nc2ccc(NCCc3c[nH]c4ccccc34)cc2)ccn1` [Compound 155], the IC50 in series [1] is 2 µM.

Turning to `CCNC(C)c1cc(Nc2ccc(NCCc3c[nH]c4ccccc34)cc2)ccn1` (stereo not shown) [Compound 143], the IC50 in series [1] was 3.16 µM.

As to `COc1cc(Nc2ccnc(CO)c2)ccc1NCCc1c[nH]c2ccccc12` [Compound 179], in series [1], the IC50 is 0.251 µM.

Consider `N#Cc1cc(Nc2ccc(NCCc3c[nH]c4ccccc34)cc2)ccn1` [Compound 86], for which the IC50 in series [1] is more than 10 µM.

For `O=C(C(Cc1c[nH]c2ccccc12)Nc1ccc(Nc2ccncc2)cc1)N(CCCCO)Cc1ccccc1` (stereo not shown) [Compound 207], the IC50 in series [1] was 0.794 µM.

For `c1cncc(CNc2ccc(NCCc3c[nH]c4ccccc34)cc2)c1` [Compound 121], the IC50 in series [1] is more than 10 µM.

Regarding `COc1cccc2[nH]cc(CCNc3ccc(Nc4ccncc4)cc3)c12` [Compound 191], in series [1], the IC50 is 3.16 µM.

Compound `c1ccc2c(CCNc3ccc(CNc4ccncc4)cc3)c[nH]c2c1` [Compound 11] displayed a melting point of 122 °C. Besides, the IC50 in series [1] is 5.01 µM.

Source of the values: US8404683B2, “Inhibitors of the interaction between MDM2 and P53” (Janssen Pharmaceutical N.V., priority 2004, dated 2013).
